Experimental data taken from patent US6706663B2, “Herbicidal 3-heterocyclic substituted benzisothiazole and benzisoxazole compounds” (Wyeth, priority 2000, dated 2004).

Legend:
CYPIR (Cyperus iria) = assay: Flooded paddy, preemergence weed control; format: in vivo; conditions: rated 3-4 weeks after treatment, 0-9 rating scale
How it was run: (§1)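 Visual 0–9 ratings versus controls scored stand, vigor, malformation, size, chlorosis and overall appearance. Plants grew from seeds or propagating organs sown 0.5 cm deep in silt loam, with water held 1.5–3 cm above the soil for the whole test under greenhouse care.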

[1] = test system: CYPSE (Cyperus serotinus); assay: Flooded paddy, preemergence weed control; format: in vivo, Rottb.; conditions: rated 3-4 weeks after treatment, 0-9 rating scale
How it was run: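 Herbicidal effect was scored visually on a 0–9 scale against an untreated control 3–4 weeks after treatment. Compounds were applied preemergence as 50/50 v/v aqueous/acetone mixtures into flood water (1.5–3 cm deep over silt loam), at roughly 0.0080 to 0.1250 kg/ha active ingredient.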

[2] = test system: MOOVA (Monochoria vaginalis); assay: Flooded paddy, preemergence weed control; format: in vivo, Presl.; conditions: rated 3-4 weeks after treatment, 0-9 rating scale
How it was run: as §1

[3] = test system: ABUTH (Abutilon theophrasti); assay: Preemergence herbicidal evaluation; format: in vivo, Medic.; conditions: rated 4-5 weeks after treatment
[4] = test system: CHEAL (Chenopodium album); assay: Preemergence herbicidal evaluation; format: in vivo, L.; conditions: rated 4-5 weeks after treatment
How it was run: (§2)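 Visual 0–9 rating versus control (stand, vigor, malformation, size, chlorosis, overall appearance), scored four to five weeks post-treatment. Preemergence spray of aqueous acetone solution onto freshly seeded soil cups; plants grown under conventional greenhouse care.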

[5] = test system: CASOB (Cassia obtusifolia); assay: Preemergence herbicidal evaluation; format: in vivo, L.; conditions: rated 4-5 weeks after treatment
How it was run: as §2

[6] = test system: AMBEL (Ambrosia artemisifolia); assay: Preemergence herbicidal evaluation; format: in vivo, L.; conditions: rated 4-5 weeks after treatment
How it was run: as §2

ZEAMX (Corn, Field) = assay: Preemergence herbicidal evaluation; format: in vivo, Zea mays, L.; conditions: rated 4-5 weeks after treatment
[7] = test system: TRZAWR (Wheat, Winter, cv Riband); assay: Postemergence herbicidal evaluation; format: in vivo, Triticum aestivum; conditions: postemergence
How it was run: (§3)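 Seedlings grown about two weeks in flats, sprayed, then kept under standard greenhouse care. Rated visually 4–5 weeks after treatment on a 0–9 scale (stand, vigour, malformation, size, chlorosis, overall appearance) relative to untreated control; repeat tests averaged.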

[8] = test system: GLXMAW (Soybean, Williams); assay: Preemergence herbicidal evaluation; format: in vivo, Glycine max, (L.) Merr. cv Williams; conditions: rated 4-5 weeks after treatment
SETVI (Setaria viridis) = assay: Postemergence herbicidal evaluation; format: in vivo, (L.) Beau; conditions: postemergence
How it was run: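 First, seedlings are raised in flats for about two weeks. Next, compound dispersed in 50/50 acetone/water with 0.5% TWEEN 20 is sprayed at 40 psi to deliver about 0.0040–1.000 kg/ha. Plants are then maintained in the greenhouse and rated 0-9 after four to five weeks.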

ORYSAT (Rice, Tebonnet) = assay: Flooded paddy, post-transplant rice tolerance; format: in vivo, Oryza sativa, (L.) Tebonnet; conditions: flooded paddy, post-transplant rice, rated 3-4 weeks after treatment, 0-9 rating scale
How it was run: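 Visual 0-9 rating against a control, covering stand, vigor, malformation, size, chlorosis and overall appearance. Treatment was applied after transplanting paired ten-day-old seedlings into flooded silt loam, with water kept 1.5 to 3 cm deep on greenhouse benches.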

[9] = test system: ECHCG (Echinochloa crus-galli); assay: Postemergence herbicidal evaluation; format: in vivo, (L.) Beau; conditions: postemergence
How it was run: as §3

[10] = test system: ECHORC (Echinochloa oryzoides); assay: Flooded paddy, preemergence weed control; format: in vivo, Echinochloa oryzoides (Ard.) Fritsch.; conditions: rated 3-4 weeks after treatment, 0-9 rating scale
How it was run: as §1

[11] = test system: IPOHE (Ipomoea hederacea); assay: Preemergence herbicidal evaluation; format: in vivo, (L.) Jacq.; conditions: rated 4-5 weeks after treatment
[12] = test system: SAGPY (Sagittaria pygmaea); assay: Flooded paddy, preemergence weed control; format: in vivo, L.; conditions: rated 3-4 weeks after treatment, 0-9 rating scale
How it was run: as §1

C[C@@H]1C[C@H](C)OC(c2nsc3ccc(-n4c(=O)cc(C(F)(F)F)n(C)c4=O)cc23)O1 (stereo partly drawn) [Compound 50, 3-[3-[(4R,6S)-4,6-dimethyl-m-dioxan-2-yl]-1,2-benzisothiazol-5-yl]-1-methyl-6-(trifluoromethyl)uracil]
7.0: herbicidal rating, CYPSE ([1]; rate 0.1250 kg/ha) | herbicidal rating, ECHORC ([10]; rate 0.0080 kg/ha)
5.0: herbicidal rating, CYPSE ([1]; rate 0.0320 kg/ha)
7.5: herbicidal rating, CYPIR (CYPIR (Cyperus iria); rate 0.0320 kg/ha) | Preemergence herbicidal rating GLXMAW ([8]; Rate 0.0620 kg/ha) | herbicidal rating, ECHORC ([10]; rate 0.0320 kg/ha) | Preemergence herbicidal rating IPOHE ([11]; Rate 0.1250 kg/ha)
9.0: herbicidal rating, MOOVA ([2]; rate 0.0320 kg/ha) | herbicidal rating, MOOVA ([2]; rate 0.1250 kg/ha) | Preemergence herbicidal rating ABUTH ([3]; Rate 0.0620 kg/ha) | Preemergence herbicidal rating ABUTH ([3]; Rate 0.1250 kg/ha) | Preemergence herbicidal rating ABUTH ([3]; Rate 0.2500 kg/ha) | Preemergence herbicidal rating CHEAL ([4]; Rate 0.0620 kg/ha) | Preemergence herbicidal rating CHEAL ([4]; Rate 0.1250 kg/ha) | Preemergence herbicidal rating CHEAL ([4]; Rate 0.2500 kg/ha) | Preemergence herbicidal rating CASOB ([5]; Rate 0.2500 kg/ha) | Preemergence herbicidal rating AMBEL ([6]; Rate 0.0620 kg/ha) | Preemergence herbicidal rating AMBEL ([6]; Rate 0.1250 kg/ha) | Preemergence herbicidal rating AMBEL ([6]; Rate 0.2500 kg/ha) | Preemergence herbicidal rating ZEAMX (ZEAMX (Corn, Field); Rate 0.0620 kg/ha) | Preemergence herbicidal rating ZEAMX (ZEAMX (Corn, Field); Rate 0.1250 kg/ha) | Preemergence herbicidal rating ZEAMX (ZEAMX (Corn, Field); Rate 0.2500 kg/ha) | Preemergence herbicidal rating GLXMAW ([8]; Rate 0.1250 kg/ha) | SETVI herbicidal rating (SETVI (Setaria viridis); rate 0.0320 kg/ha) | SETVI herbicidal rating (SETVI (Setaria viridis); rate 0.0620 kg/ha) | herbicidal rating, ECHORC ([10]; rate 0.1250 kg/ha) | Preemergence herbicidal rating IPOHE ([11]; Rate 0.2500 kg/ha)
0.0: herbicidal rating, CYPIR (CYPIR (Cyperus iria); rate 0.0080 kg/ha) | herbicidal rating, SAGPY ([12]; rate 0.0080 kg/ha) | herbicidal rating, SAGPY ([12]; rate 0.0320 kg/ha)
8.5: herbicidal rating, ORYSAT (rice tolerance) (ORYSAT (Rice, Tebonnet); rate 0.1250 kg/ha)
4.5: TRZAWR herbicidal rating ([7]; rate 0.0320 kg/ha) | TRZAWR herbicidal rating ([7]; rate 0.0620 kg/ha) | herbicidal rating, SAGPY ([12]; rate 0.1250 kg/ha)
3.0: herbicidal rating, ORYSAT (rice tolerance) (ORYSAT (Rice, Tebonnet); rate 0.0080 kg/ha) | ECHCG herbicidal rating ([9]; rate 0.0320 kg/ha) | ECHCG herbicidal rating ([9]; rate 0.0620 kg/ha)
5.5: Preemergence herbicidal rating CASOB ([5]; Rate 0.0620 kg/ha)
8.0: herbicidal rating, CYPIR (CYPIR (Cyperus iria); rate 0.1250 kg/ha) | Preemergence herbicidal rating GLXMAW ([8]; Rate 0.2500 kg/ha) | Preemergence herbicidal rating IPOHE ([11]; Rate 0.0620 kg/ha)
6.5: Preemergence herbicidal rating CASOB ([5]; Rate 0.1250 kg/ha) | herbicidal rating, ORYSAT (rice tolerance) (ORYSAT (Rice, Tebonnet); rate 0.0320 kg/ha)

C[C@@H]1C[C@H](C)OC(c2nsc3ccc(-n4c(=O)cc(C(F)(F)F)n(C)c4=O)cc23)O1 (stereo partly drawn) [Compound 51, 3-[3-[(4R,6S)-4,6-dimethyl-m-dioxan-2-yl]-1,2-benzisothiazol-5-yl]-1-methyl-6-(trifluoromethyl)uracil]
8.0: herbicidal rating, CYPIR (CYPIR (Cyperus iria); rate 0.0320 kg/ha) | Preemergence herbicidal rating ZEAMX (ZEAMX (Corn, Field); Rate 0.0620 kg/ha) | herbicidal rating, ECHORC ([10]; rate 0.0080 kg/ha)
4.0: TRZAWR herbicidal rating ([7]; rate 0.0620 kg/ha)
6.5: Preemergence herbicidal rating IPOHE ([11]; Rate 0.0620 kg/ha)
8.5: Preemergence herbicidal rating ZEAMX (ZEAMX (Corn, Field); Rate 0.1250 kg/ha)
0.0: herbicidal rating, SAGPY ([12]; rate 0.0080 kg/ha)
3.0: herbicidal rating, CYPIR (CYPIR (Cyperus iria); rate 0.0080 kg/ha) | SETVI herbicidal rating (SETVI (Setaria viridis); rate 0.0320 kg/ha) | SETVI herbicidal rating (SETVI (Setaria viridis); rate 0.0620 kg/ha) | ECHCG herbicidal rating ([9]; rate 0.0320 kg/ha) | ECHCG herbicidal rating ([9]; rate 0.0620 kg/ha)
3.5: TRZAWR herbicidal rating ([7]; rate 0.0320 kg/ha)
7.0: herbicidal rating, ORYSAT (rice tolerance) (ORYSAT (Rice, Tebonnet); rate 0.0080 kg/ha) | herbicidal rating, SAGPY ([12]; rate 0.0320 kg/ha)
9.0: herbicidal rating, CYPIR (CYPIR (Cyperus iria); rate 0.1250 kg/ha) | herbicidal rating, CYPSE ([1]; rate 0.0320 kg/ha) | herbicidal rating, CYPSE ([1]; rate 0.1250 kg/ha) | herbicidal rating, MOOVA ([2]; rate 0.0320 kg/ha) | herbicidal rating, MOOVA ([2]; rate 0.1250 kg/ha) | Preemergence herbicidal rating ABUTH ([3]; Rate 0.0620 kg/ha) | Preemergence herbicidal rating ABUTH ([3]; Rate 0.1250 kg/ha) | Preemergence herbicidal rating ABUTH ([3]; Rate 0.2500 kg/ha) | Preemergence herbicidal rating CHEAL ([4]; Rate 0.0620 kg/ha) | Preemergence herbicidal rating CHEAL ([4]; Rate 0.1250 kg/ha) | Preemergence herbicidal rating CHEAL ([4]; Rate 0.2500 kg/ha) | Preemergence herbicidal rating CASOB ([5]; Rate 0.0620 kg/ha) | Preemergence herbicidal rating CASOB ([5]; Rate 0.1250 kg/ha) | Preemergence herbicidal rating CASOB ([5]; Rate 0.2500 kg/ha) | Preemergence herbicidal rating AMBEL ([6]; Rate 0.0620 kg/ha) | Preemergence herbicidal rating AMBEL ([6]; Rate 0.1250 kg/ha) | Preemergence herbicidal rating AMBEL ([6]; Rate 0.2500 kg/ha) | Preemergence herbicidal rating ZEAMX (ZEAMX (Corn, Field); Rate 0.2500 kg/ha) | Preemergence herbicidal rating GLXMAW ([8]; Rate 0.0620 kg/ha) | Preemergence herbicidal rating GLXMAW ([8]; Rate 0.1250 kg/ha) | Preemergence herbicidal rating GLXMAW ([8]; Rate 0.2500 kg/ha) | herbicidal rating, ORYSAT (rice tolerance) (ORYSAT (Rice, Tebonnet); rate 0.0320 kg/ha) | herbicidal rating, ORYSAT (rice tolerance) (ORYSAT (Rice, Tebonnet); rate 0.1250 kg/ha) | herbicidal rating, ECHORC ([10]; rate 0.0320 kg/ha) | herbicidal rating, ECHORC ([10]; rate 0.1250 kg/ha) | Preemergence herbicidal rating IPOHE ([11]; Rate 0.1250 kg/ha) | Preemergence herbicidal rating IPOHE ([11]; Rate 0.2500 kg/ha) | herbicidal rating, SAGPY ([12]; rate 0.1250 kg/ha)
